The target of one data set is T1, human mGlu6 receptor (Homo sapiens, UniProt O15303).
T1 construct: expressed in transfected cells; host or cells: AV12 cells, co-expressing rat EAAT1
In words: mGlu6 cAMP antagonist assay (reference agonist L-AP4). The format is cell-based. Particulars: cAMP format. The text has this:
FLIPR and cAMP Assays for mGlu Receptor Selectivity
The relative antagonist potencies of the compounds of the invention for the other human mGlu receptors can be assessed with either a cAMP assay or fluorometric calcium response assay (see for example Fell et al., JPET (in press)). Briefly, individual AV12 cell lines containing the rat EAAT1 glutamate transporter and stably expressing the human mGlu1, 2, 3, 4, 5, 6, & 8 receptors are used for these studies. The mGlu1 and 5 receptors are […], so they naturally signal through phospholipase C, producing a calcium flux response which can be used to measure receptor activation using a Fluorometric Imaging Plate Reader (FLIPR, Molecular Devices). The cell lines expressing the mGlu2, 3, 4, and 8 receptor are designed to express the Gα15 subunit so that these Gi-coupled receptors will generate a calcium flux response similar to the mGlu1 and 5 receptor expressing cell lines. The mGlu6 receptor is tested in a cAMP format using methods analogous to those developed for mGlu2 and mGlu3 above. These cell lines are maintained as previously described except that amounts of L-glutamine and selection agents (geneticin, hygromycin B, zeocin, and blasticidin) may vary depending on the cell line. Confluent cultures are passaged biweekly.
Antagonist activity in mGlu6 cells is measured using cAMP in a method analogous to that described above for mGlu2 and mGlu3 activity, except that the reference agonist was L-AP4 (Tocris). […] Relative IC50 and EC50 values are calculated from the top-bottom range of the concentration response curve using a four-parameter logistic curve fitting program (ActivityBase v5.3.1.22).

Another data set addresses T2, human mGlu3 receptors (Homo sapiens, UniProt Q14832).
T2 construct: expressed in transfected cells; host or cells: AV12 cells, co-expressing rat EAAT1
In words: mGlu3 receptor cAMP antagonist assay. The format is cell-based. Particulars: reversal of DCG IV (EC90) inhibition of forskolin-stimulated cAMP; AV12 cells. The method, then: mGlu2 and mGlu3 Receptor cAMP Antagonist Assays
Antagonist activity is assayed in recombinant AV12 cells stably expressing human mGlu2 or mGlu3 receptors and the rat glutamate transporter EAAT1 (Excitatory Amino Acid Transporter 1). The cell lines are maintained by culturing in DMEM with high glucose and pyridoxine hydrochloride supplemented with 5% dialyzed fetal bovine serum (FBS), 1 mM sodium pyruvate, 1 mM HEPES and 1 mM L-glutamine; geneticin and hygromycin B are used as selection antibiotics. Confluent cultures are grown at 37° C. in an atmosphere containing 6.5% CO2, and passaged biweekly. Cells are harvested using 0.25% trypsin, suspended in freeze media (FBS with 10% DMSO) at 10^7 cells/ml, and aliquots are stored in liquid nitrogen. Twenty-four hours before the assay, cells are plated at a density of 8,000-10,000 cells per well in a tissue culture treated, 96-well, half-area black plates (Costar 3875) in 50 μl of DMEM with high glucose and pyridoxine hydrochloride supplemented with 5% dialyzed FBS, 1 mM sodium pyruvate, 1 mM HEPES, 100 μg/ml ampicillin, and 250 μM (mGlu2) or 125 μM (mGlu3) of L-glutamine.
Reversal of the inhibition of forskolin-stimulated cAMP production by test compounds is measured using homogeneous time resolved fluorescence technology (HTRF; Cisbio cat #62AM4PEB). The medium is removed and the cells are incubated with 100 μl cAMP stimulation buffer (STIM) for 30 minutes at 37° C. (STIM buffer contains 500 ml HBSS, 1000 ml DPBS, 0.034% BSA, 1.67 mM HEPES and 500 μM IBMX (Sigma 15879).) Compounds are tested in 10-point concentration response curves using 3× serial dilution followed by further 40-fold dilution into STIM buffer. DCG IV (Tocris 0975) serves as the reference agonist. The final reaction mixture contains 1 μM (for mGlu2) or 3 μM (for mGlu3) of forskolin (Sigma F6886), DCG IV at its EC90, and up to 25 μM of test compound. Cells are incubated at 37° C. for 20 minutes. To measure the cAMP levels, cAMP-d2 conjugate and anti cAMP-cryptate conjugate in lysis buffer are incubated with the treated cells at room temperature for 1 hour (mGlu2) or 1.5 hour (mGlu3). The HTRF signal is detected using an EnVision plate reader (Perkin-Elmer) to calculate the ratio of fluorescence at […]. The raw data are converted to cAMP amount (pmole/well) using a cAMP standard curve generated for each experiment. Relative IC50 values are calculated from the top-bottom range of the concentration response curve using a four-parameter logistic curve fitting program (ActivityBase v5.3.1.22).

The target in a further data set is hERG channel (Homo sapiens, UniProt Q12809). The experiment in a line: Off-target activity, known assay methods: hERG. The source says: (§1) Further, certain compounds of the present invention show a lack of significant activity at other physiologically important receptors such as, but not limited to, the hERG channel, serotonin receptors (specifically 5-HT2A and 5-HT2B), muscarinic receptors (specifically M2), and iGluR receptors (specifically iGluR5).
Chain of hERG channel (Q12809 whole entry): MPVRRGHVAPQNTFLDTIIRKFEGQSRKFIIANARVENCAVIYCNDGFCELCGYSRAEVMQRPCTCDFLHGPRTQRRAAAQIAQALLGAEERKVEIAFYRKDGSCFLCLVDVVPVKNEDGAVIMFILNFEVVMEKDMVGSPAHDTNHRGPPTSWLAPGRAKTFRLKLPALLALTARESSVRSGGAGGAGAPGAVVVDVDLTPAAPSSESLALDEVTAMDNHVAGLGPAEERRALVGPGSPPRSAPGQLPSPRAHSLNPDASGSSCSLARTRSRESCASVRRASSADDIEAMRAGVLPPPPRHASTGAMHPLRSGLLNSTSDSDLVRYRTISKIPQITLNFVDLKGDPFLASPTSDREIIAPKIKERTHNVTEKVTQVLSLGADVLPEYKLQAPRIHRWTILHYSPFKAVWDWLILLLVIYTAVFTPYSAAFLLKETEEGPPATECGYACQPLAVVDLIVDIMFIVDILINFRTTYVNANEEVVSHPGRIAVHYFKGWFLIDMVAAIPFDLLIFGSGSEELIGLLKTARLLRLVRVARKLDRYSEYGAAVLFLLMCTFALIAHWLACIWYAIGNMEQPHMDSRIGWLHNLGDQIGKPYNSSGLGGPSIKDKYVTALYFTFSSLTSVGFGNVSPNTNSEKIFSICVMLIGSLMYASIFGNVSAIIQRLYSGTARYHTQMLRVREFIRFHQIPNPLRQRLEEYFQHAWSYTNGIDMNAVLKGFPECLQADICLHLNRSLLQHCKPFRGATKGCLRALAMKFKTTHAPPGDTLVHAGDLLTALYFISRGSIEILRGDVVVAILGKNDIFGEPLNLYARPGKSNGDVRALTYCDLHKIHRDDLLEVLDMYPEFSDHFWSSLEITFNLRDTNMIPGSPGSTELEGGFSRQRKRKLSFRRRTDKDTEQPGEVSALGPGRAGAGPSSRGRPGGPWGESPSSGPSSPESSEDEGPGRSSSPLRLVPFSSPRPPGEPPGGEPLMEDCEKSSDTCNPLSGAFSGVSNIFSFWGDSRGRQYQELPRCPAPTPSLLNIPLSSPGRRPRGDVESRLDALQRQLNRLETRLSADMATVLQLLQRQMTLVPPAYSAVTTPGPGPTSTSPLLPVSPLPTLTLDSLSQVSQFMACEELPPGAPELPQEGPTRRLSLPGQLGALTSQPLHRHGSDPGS
(hERG is a cardiac potassium channel; its block is linked to QT prolongation.)

The target in data set [1] is serotonin receptor 5-HT2A (Homo sapiens, UniProt P28223). In words: Off-target activity, known assay methods: 5-HT2A.
Chain of serotonin receptor 5-HT2A (P28223 whole entry): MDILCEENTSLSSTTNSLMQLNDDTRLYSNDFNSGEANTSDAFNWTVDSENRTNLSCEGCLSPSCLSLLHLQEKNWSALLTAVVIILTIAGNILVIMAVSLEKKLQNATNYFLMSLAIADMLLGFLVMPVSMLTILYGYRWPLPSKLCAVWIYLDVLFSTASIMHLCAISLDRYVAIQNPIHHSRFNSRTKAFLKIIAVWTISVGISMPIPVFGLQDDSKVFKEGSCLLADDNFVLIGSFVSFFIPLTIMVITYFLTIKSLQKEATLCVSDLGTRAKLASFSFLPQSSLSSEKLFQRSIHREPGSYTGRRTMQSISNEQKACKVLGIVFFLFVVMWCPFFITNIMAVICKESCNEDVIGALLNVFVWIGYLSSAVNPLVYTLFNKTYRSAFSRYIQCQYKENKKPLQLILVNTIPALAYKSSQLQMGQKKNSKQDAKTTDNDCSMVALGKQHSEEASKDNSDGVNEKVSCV
Source text: as §1

The subject of a further data set is mGlu2+/+ mice. In words: mFST in mGlu2+/+ littermate mice. The format is in vivo, mouse. Particulars: 10 mg/kg, i.p., 30 min prior.
A further data set addresses T3, muscarinic receptor M2 (Homo sapiens, UniProt P08172).
T3 sequence (P08172 1-466): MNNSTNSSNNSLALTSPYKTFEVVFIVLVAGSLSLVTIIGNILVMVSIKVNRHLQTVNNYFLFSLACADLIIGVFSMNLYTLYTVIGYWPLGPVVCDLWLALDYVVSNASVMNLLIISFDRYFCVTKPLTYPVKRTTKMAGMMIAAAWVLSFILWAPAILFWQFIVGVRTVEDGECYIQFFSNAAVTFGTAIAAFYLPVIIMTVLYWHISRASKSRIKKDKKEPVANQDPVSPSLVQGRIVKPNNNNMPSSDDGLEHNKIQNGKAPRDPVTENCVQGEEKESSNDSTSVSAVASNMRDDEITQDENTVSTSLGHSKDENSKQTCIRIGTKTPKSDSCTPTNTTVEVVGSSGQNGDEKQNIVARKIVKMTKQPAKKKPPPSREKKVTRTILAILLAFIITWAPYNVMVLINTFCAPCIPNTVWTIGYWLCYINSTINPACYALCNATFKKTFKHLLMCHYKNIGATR
The experiment in a line: Off-target activity, known assay methods: M2.
Source text: as §1

Data set [2] concerns the target serotonin receptor 5-HT2B (Homo sapiens, UniProt P41595). In words: Off-target activity, known assay methods: 5-HT2B.
Source text: as §1

The target in a further data set is iGluR5 (Homo sapiens, UniProt P39086). In words: Off-target activity, known assay methods: iGluR5.
Chain of iGluR5 (P39086 31-918): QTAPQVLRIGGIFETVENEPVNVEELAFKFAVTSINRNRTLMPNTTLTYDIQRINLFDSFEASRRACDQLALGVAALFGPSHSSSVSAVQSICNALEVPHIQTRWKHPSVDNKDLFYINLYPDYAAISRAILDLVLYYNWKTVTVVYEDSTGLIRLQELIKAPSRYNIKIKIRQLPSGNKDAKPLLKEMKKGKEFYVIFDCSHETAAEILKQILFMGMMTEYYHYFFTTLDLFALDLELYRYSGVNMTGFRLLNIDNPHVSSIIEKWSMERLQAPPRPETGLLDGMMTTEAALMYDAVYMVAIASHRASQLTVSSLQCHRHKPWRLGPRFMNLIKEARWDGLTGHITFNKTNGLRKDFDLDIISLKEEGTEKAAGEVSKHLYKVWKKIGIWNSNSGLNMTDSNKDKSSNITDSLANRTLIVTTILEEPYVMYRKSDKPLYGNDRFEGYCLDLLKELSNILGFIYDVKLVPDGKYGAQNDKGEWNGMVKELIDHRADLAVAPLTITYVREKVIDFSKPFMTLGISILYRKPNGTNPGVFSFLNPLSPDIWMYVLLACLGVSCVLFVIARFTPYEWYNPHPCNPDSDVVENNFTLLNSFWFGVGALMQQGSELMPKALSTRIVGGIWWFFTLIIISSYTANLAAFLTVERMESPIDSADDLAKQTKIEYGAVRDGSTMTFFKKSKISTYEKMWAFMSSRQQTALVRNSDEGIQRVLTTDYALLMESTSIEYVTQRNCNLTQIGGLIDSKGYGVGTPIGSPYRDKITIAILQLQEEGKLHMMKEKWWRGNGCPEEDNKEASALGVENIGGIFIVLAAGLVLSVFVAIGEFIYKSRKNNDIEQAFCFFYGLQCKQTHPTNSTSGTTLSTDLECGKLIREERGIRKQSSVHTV
Source text: as §1

What is called IC50 is the concentration needed to halve the response being measured.

T2 sequence (Q14832 23-879): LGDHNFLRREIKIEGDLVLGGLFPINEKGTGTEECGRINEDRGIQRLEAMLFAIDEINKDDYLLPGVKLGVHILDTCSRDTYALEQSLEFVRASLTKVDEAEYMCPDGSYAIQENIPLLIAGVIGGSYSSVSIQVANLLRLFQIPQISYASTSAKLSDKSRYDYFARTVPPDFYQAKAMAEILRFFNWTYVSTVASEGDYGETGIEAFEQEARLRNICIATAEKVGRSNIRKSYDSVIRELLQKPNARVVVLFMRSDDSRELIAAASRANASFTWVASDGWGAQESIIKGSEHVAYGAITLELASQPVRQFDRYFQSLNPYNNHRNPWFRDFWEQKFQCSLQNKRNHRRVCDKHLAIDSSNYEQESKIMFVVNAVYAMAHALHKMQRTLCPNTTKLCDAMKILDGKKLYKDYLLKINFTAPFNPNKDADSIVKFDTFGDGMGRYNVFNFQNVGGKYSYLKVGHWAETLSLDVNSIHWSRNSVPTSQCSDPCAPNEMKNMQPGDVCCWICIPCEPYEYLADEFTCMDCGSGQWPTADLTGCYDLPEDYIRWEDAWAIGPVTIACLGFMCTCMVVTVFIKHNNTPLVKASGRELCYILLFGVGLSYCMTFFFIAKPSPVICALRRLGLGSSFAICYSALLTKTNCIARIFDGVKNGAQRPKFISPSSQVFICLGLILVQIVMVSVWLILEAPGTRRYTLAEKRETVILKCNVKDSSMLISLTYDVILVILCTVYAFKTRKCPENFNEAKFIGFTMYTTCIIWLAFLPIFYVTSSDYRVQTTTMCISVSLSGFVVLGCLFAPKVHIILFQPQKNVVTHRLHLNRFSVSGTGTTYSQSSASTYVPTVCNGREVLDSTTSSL
T1 sequence (O15303 25-877): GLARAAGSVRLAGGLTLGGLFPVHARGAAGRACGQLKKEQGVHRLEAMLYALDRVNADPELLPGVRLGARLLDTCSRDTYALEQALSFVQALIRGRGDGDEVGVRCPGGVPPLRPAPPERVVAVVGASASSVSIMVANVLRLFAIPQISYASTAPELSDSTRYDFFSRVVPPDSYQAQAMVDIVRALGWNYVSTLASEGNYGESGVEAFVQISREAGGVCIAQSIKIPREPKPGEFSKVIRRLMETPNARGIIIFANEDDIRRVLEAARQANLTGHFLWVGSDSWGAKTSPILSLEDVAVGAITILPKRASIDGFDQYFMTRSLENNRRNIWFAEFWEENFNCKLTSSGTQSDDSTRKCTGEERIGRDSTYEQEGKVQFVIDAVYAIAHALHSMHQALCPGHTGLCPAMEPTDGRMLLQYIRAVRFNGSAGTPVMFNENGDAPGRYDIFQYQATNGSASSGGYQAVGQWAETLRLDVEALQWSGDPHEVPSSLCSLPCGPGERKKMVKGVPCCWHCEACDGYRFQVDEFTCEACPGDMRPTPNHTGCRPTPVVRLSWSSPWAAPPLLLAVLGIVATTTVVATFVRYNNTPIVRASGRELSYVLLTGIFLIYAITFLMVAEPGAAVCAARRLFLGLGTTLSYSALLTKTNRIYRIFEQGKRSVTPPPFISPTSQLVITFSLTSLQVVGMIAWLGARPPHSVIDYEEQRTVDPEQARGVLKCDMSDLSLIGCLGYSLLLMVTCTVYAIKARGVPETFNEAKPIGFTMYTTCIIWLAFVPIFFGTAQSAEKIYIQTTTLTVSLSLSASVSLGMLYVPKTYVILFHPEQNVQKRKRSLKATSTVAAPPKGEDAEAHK
Chain of serotonin receptor 5-HT2B (P41595 whole entry): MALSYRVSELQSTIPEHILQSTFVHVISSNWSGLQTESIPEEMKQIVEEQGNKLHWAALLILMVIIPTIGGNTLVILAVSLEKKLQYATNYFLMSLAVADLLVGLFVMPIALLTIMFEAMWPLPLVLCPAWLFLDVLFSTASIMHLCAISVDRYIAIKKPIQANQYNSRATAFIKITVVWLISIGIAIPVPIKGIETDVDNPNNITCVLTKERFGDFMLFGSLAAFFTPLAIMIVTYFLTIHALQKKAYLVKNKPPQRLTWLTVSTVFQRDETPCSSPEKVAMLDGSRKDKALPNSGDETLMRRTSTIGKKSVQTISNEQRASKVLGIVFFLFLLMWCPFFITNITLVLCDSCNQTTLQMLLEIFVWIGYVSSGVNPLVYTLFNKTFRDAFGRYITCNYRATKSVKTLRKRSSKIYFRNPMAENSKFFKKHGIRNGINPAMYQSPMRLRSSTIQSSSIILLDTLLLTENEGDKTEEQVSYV

For the compound `Cl.Cn1cnc(S[C@H]2[C@H]3[C@H](C(=O)O)[C@H]3[C@](N)(C(=O)O)[C@@H]2OCc2ccc(Cl)c(Cl)c2)n1` [Example 7, (1R,2R,3S,4S,5R,6R)-2-Amino-3-[(3,4-dichlorophenyl)methoxy]-4-[(1-methyl-1,2,4-triazol-3-yl)sulfanyl]bicyclo[3.1.0]hexane-2,6-dicarboxylic acid hydrochloride.], the results for the 50% inhibitory concentration (IC50) at human mGlu6 receptor and at human mGlu3 receptors were 3690 nM and 34.8 ± 6.9 nM, respectively.

Regarding `N[C@]1(C(=O)O)[C@@H]2[C@@H](C(=O)O)[C@@H]2[C@H](O)[C@H]1OCc1ccc(Cl)c(Cl)c1` [Example 1, (1S,2R,3S,4S,5R,6R)-2-Amino-3-[(3,4-dichlorobenzyl)oxy]-4-hydroxybicyclo[3.1.0]hexane-2,6-dicarboxylic acid], the “activity at the hERG channel” value on hERG channel is reported as “no appreciable activity”. Besides, the IC50 was determined as 3300 nM on human mGlu6 receptor and 27.2 ± 4.2 nM at human mGlu3 receptors. For the same compound, the “activity at 5-HT2A” value in data set [1] is “no appreciable activity”. Further, the immobility time entry with mGlu2+/+ mice is given as “significantly decrease immobility time”. Besides, at muscarinic receptor M2, the “activity at M2” value is “no appreciable activity”. In data set [2], the “activity at 5-HT2B” value is reported as “no appreciable activity”. Also, the “activity at iGluR5” value at iGluR5 is on record as “no appreciable activity”.

As to `N[C@]1(C(=O)O)[C@@H]2[C@@H](C(=O)O)[C@@H]2[C@H](Sc2nc[nH]n2)[C@H]1OCc1ccc(Cl)c(Cl)c1` [Example 2, (1R,2R,3S,4S,5R,6R)-2-Amino-3-[(3,4-dichlorobenzyl)oxy]-4-(1H-1,2,4-triazol-3-ylsulfanyl)bicyclo[3.1.0]hexane-2,6-dicarboxylic acid], the concentration for half-maximal inhibition (IC50) at human mGlu6 receptor was found to be 1290 ± 162 nM; on human mGlu3 receptors it was 7.8 nM.

Regarding `Cl.N[C@]1(C(=O)O)[C@@H]2[C@@H](C(=O)O)[C@@H]2[C@H](NC(=O)CO)[C@H]1OCc1ccc(Cl)c(Cl)c1` [Example 9, (1S,2R,3R,4S,5R,6S)-2-Amino-3-[(3,4-dichlorobenzyl)oxy]-4-[(hydroxyacetyl)amino]bicyclo[3.1.0]hexane-2,6-dicarboxylic acid hydrochloride], the concentration for half-maximal inhibition (IC50) on human mGlu6 receptor came to 2820 nM; at human mGlu3 receptors, 4.4 ± 0.5 nM.

On to `CC(=O)N[C@H]1[C@H]2[C@H](C(=O)O)[C@H]2[C@](N)(C(=O)O)[C@@H]1OCc1ccc(Cl)c(Cl)c1` [Example 4, (1S,2R,3R,4S,5R,6S)-4-(Acetylamino)-2-amino-3-[(3,4-dichlorobenzyl)oxy]bicyclo[3.1.0]hexane-2,6-dicarboxylic acid], for which the concentration for half-maximal inhibition (IC50) stood at 2640 ± 424 nM at human mGlu6 receptor and 8.2 ± 0.3 nM at human mGlu3 receptors.
